# Test results taken from paper PMC4156053, “A Conserved Mitochondrial ATP-binding Cassette Transporter Exports Glutathione Polysulfide for Cytosolic Metal Cofactor Assembly” (The Journal of Biological Chemistry, 2014).
# Molecular target: T1, ATM3 (Arabidopsis thaliana, UniProt Q9LVM1)
# T1 construct: gene ABCB25; inside-out membrane vesicles or Ni-NTA purified in detergent; half-transporter that dimerizes
# Assay: ATPase activity, malachite green Pi release
# Type: biochemical
# Conditions: 5 mM Na-ATP, 5 mM MgCl2, 0.1 M HEPES-KOH pH 7.0, 30 °C
# T1 sequence (Q9LVM1 61-728): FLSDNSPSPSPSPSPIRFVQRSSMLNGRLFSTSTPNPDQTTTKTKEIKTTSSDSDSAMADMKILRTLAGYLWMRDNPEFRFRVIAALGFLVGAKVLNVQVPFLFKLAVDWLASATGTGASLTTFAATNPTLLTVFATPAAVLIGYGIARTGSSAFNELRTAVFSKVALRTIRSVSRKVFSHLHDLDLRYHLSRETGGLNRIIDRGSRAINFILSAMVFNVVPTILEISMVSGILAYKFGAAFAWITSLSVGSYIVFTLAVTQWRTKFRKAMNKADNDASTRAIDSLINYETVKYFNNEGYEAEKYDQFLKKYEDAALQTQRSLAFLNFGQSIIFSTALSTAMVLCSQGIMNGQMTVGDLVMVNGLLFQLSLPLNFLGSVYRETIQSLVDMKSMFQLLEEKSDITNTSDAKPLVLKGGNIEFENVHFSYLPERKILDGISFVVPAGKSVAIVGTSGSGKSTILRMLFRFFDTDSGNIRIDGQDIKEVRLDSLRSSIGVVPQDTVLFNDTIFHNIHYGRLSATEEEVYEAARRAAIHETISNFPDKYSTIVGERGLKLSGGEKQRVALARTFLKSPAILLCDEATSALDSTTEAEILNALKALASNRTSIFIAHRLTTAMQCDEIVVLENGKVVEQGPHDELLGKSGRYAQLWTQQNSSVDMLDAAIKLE
structure (smiles),measurement,value
Nc1ncnc2c1ncn2[C@@H]1O[C@H](COP(=O)(O)OP(=O)(O)OP(=O)(O)O)[C@@H](O)[C@H]1O [ATP],"ATPase activity, malachite green Pi release",retained their ATPase activity in detergent solution
